Data taken from patent publication US20230255964A1, “EXTENDED RELEASE DOSAGE FORMS FOR TYK2 INHIBITORS” (Bristol-Myers Squibb Company, priority 2019, published 2023).

Key:
[1] = Chemical stability of BMS-986165:HPMCAS-H SDDs upon storage (related substances); assay type: physicochemical; settings: API standard, no stability condition printed
Protocol: Lots of 25% w/w BMS-986165 SDD with HPMCAS-H were assessed for physical and chemical stability. […] Dissolution performance in the microcentrifuge test was unchanged.
There was no evidence of crystallization by PXRD in any SDD after storage for up to 6 months at 40° C./75%RH open (FIG. 1A and FIG. 1B). DSC data indicated slight changes similar to those observed in 25% w/w BMS-986165 SDD after exposure to 50° C./75%RH or 40° C./75%RH but there was no trend with API loading and the results were considered to reflect an “ageing” or “annealing” effect rather than crystal formation. Scanning electron microscopy (SEM) images confirmed the presence of a single phase homogenous dispersion (FIGS. 2A-C, FIGS. 3A-C, FIGS. 4A-C).

pH-dependent solubility = assay type: physicochemical; settings: pHs > 4
Source text: For immediate release formulations, such pH-dependent properties may result in a reduction in bioavailability when dosed with acid reducing agents, such as, e.g., famotidine or omeprazole. […] While using the higher-energy, amorphous free base form of BMS-986165 helps address the above challenges, formulating amorphous BMS-986165 presents other challenges, including ensuring physical stability of the amorphous form during storage, and maintaining supersaturation of the compound during dissolution in the GI tract.

| BMS-986165 (relative ret. time 1.00), related substances [1] | Total imporities >LOQ [1] | solubility (pH-dependent solubility) | Compound |
| --- | --- | --- | --- |
| 99.48 | 0.52% | – | [2H]C([2H])([2H])NC(=O)c1nnc(NC(=O)C2CC2)cc1Nc1cccc(-c2ncn(C)n2)c1OC [BMS-986165, 6-(cyclopropaneamido)-4-((2-methoxy-3-(1-methyl-1H-1,2,4-triazol-3-yl)phenyl)amino)-N-(methyl-d3)pyridazine-3-carboxamide] |
| – | – | low solubility | [2H]C([2H])([2H])NC(=O)c1nnc(NC(=O)C2CC2)cc1Nc1cccc(-c2ncn(C)n2)c1OC [BMS-986165 crystalline free base, 6-(cyclopropaneamido)-4-((2-methoxy-3-(1-methyl-1H-1,2,4-triazol-3-yl)phenyl)amino)-N-(methyl-d3)pyridazine-3-carboxamide] |
